Drawing on US20230365592A1 (Agios Pharmaceuticals, Inc., priority 2022, published 2023), this text covers AC50 for 25 compounds.

In this assay the target is T1, human PAH with the R408W mutation (Homo sapiens, UniProt P00439, R408W).
T1 construct: expressed in transfected cells
T1 sequence (P00439 1-452 R408W): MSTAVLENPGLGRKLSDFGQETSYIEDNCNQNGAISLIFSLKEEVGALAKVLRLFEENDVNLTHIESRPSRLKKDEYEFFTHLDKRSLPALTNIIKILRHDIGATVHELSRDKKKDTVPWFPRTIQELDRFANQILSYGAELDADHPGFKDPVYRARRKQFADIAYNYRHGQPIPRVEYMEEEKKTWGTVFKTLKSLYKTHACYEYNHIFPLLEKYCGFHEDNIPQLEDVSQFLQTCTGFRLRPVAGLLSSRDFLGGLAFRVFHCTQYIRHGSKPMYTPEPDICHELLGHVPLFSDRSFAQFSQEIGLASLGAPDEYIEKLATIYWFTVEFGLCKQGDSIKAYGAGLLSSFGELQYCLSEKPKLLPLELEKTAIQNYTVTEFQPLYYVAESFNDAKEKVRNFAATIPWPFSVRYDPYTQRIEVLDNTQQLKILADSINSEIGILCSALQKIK
As to the kind of experiment: Cell Based Phenylalanine Flux Assay.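 Further: after compound treatment, cells received sepiapterin plus isotope-labelled Phenylalanine for 4 hours, then labelled Tyrosine in the medium was quantified, 10-point 2-fold dilution series run in duplicate.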 As to conditions: A375 cells expressing human PAH R408W; 24 hrs compound incubation; 13C-Tyrosine by LC-MS; average where tested multiple times; read-out: AC50.

Consider `Cc1cccn2nc([C@H]3c4nc[nH]c4CCN3c3nnc(-c4cccc(F)n4)o3)cc12` [Example 2360, (R)-2-(6-fluoropyridin-2-yl)-5-(4-(4-methylpyrazolo[1,5-a]pyridin-2-yl)-1,4,6,7-tetrahydro-5H-imidazo[4,5-c]pyridin-5-yl)-1,3,4-oxadiazole], for which the AC50 is above 5 µM.

In the case of `Fc1cccc(-c2nnc(N3CCc4[nH]cnc4[C@H]3c3cc4c(C(F)(F)F)cccn4n3)o2)n1` [Example 2363, (S)-2-(6-fluoropyridin-2-yl)-5-(4-(4-(trifluoromethyl)pyrazolo[1,5-a]pyridin-2-yl)-1,4,6,7-tetrahydro-5H-imidazo[4,5-c]pyridin-5-yl)-1,3,4-oxadiazole], the AC50 was in the range of 0.5 to 1 µM. Next, `O=C(c1nnc(-c2ccc(F)cn2)o1)N1CCc2[nH]cnc2[C@@H]1c1cc2ccccn2n1` [Example 2364, (R)-(5-(5-fluoropyridin-2-yl)-1,3,4-oxadiazol-2-yl)(4-(pyrazolo[1,5-a]pyridin-2-yl)-6,7-dihydro-1H-imidazo[4,5-c]pyridin-5(4H)-yl)methanone]: above 5 µM.

With `O=C(c1cnn(CC(F)(F)F)c1C(F)F)N1CCc2[nH]cnc2[C@H]1c1cc2ccccn2n1` [Example 2368, (S)-(5-(difluoromethyl)-1-(2,2,2-trifluoroethyl)-1H-pyrazol-4-yl)(4-(pyrazolo[1,5-a]pyridin-2-yl)-6,7-dihydro-1H-imidazo[4,5-c]pyridin-5(4H)-yl)methanone], the AC50 was in the range of 1 to 5 µM. The result for `O=C(c1cnn(CC(F)(F)F)c1C(F)F)N1CCc2[nH]cnc2[C@@H]1c1cc2ccccn2n1` [Example 2369, (R)-(5-(difluoromethyl)-1-(2,2,2-trifluoroethyl)-1H-pyrazol-4-yl)(4-(pyrazolo[1,5-a]pyridin-2-yl)-6,7-dihydro-1H-imidazo[4,5-c]pyridin-5(4H)-yl)methanone] reads above 5 µM.

With `Nc1cc(C(=O)N2CCc3[nH]cnc3[C@H]2c2cc3ccccn3n2)n(C(F)F)n1` [Example 2370, (S)-(3-amino-1-(difluoromethyl)-1H-pyrazol-5-yl)(4-(pyrazolo[1,5-a]pyridin-2-yl)-6,7-dihydro-1H-imidazo[4,5-c]pyridin-5(4H)-yl)methanone], the AC50 lay in the range of 1 to 5 µM.

As for `Cn1nc(C(F)(F)F)nc1C(=O)N1CCc2[nH]cnc2[C@H]1c1cc2ccccn2n1` [Example 2372, (S)-(1-methyl-3-(trifluoromethyl)-1H-1,2,4-triazol-5-yl)(4-(pyrazolo[1,5-a]pyridin-2-yl)-6,7-dihydro-1H-imidazo[4,5-c]pyridin-5(4H)-yl)methanone], the AC50 lay in the range of 1 to 5 µM. Next, `CC(C)(O)c1nnc(C(=O)N2CCc3[nH]cnc3[C@H]2c2cc3c(Cl)cccn3n2)o1` [Example 2378, (S)-(4-(4-chloropyrazolo[1,5-a]pyridin-2-yl)-6,7-dihydro-1H-imidazo[4,5-c]pyridin-5(4H)-yl)(5-(2-hydroxypropan-2-yl)-1,3,4-oxadiazol-2-yl)methanone]: 1 to 5 µM. The result for `Cc1ccc2cc([C@@H]3c4nc[nH]c4CCN3C(=O)c3nnc(-c4cnn(C)c4)o3)nn2c1` [Example 2380, (S)-(5-(1-methyl-1H-pyrazol-4-yl)-1,3,4-oxadiazol-2-yl)(4-(6-methylpyrazolo[1,5-a]pyridin-2-yl)-6,7-dihydro-1H-imidazo[4,5-c]pyridin-5(4H)-yl)methanone] reads 1 to 5 µM; that for `CC(C)(O)c1ncc(C(=O)N2CCc3[nH]cnc3[C@H]2c2cc3c(F)cccn3n2)o1` [Example 2382, (S)-(4-(4-fluoropyrazolo[1,5-a]pyridin-2-yl)-6,7-dihydro-1H-imidazo[4,5-c]pyridin-5(4H)-yl)(2-(2-hydroxypropan-2-yl)oxazol-5-yl)methanone], 1 to 5 µM. The result for `Cc1ccn2nc([C@@H]3c4nc[nH]c4CCN3C(=O)c3nnc(-c4ccccn4)o3)cc2c1` [Example 2384, (S)-(4-(5-methylpyrazolo[1,5-a]pyridin-2-yl)-6,7-dihydro-1H-imidazo[4,5-c]pyridin-5(4H)-yl)(5-(pyridin-2-yl)-1,3,4-oxadiazol-2-yl)methanone] reads 1 to 5 µM; that for `Cc1ccn2nc([C@H]3c4nc[nH]c4CCN3C(=O)c3nnc(-c4ccccn4)o3)cc2c1` [Example 2385, (R)-(4-(5-methylpyrazolo[1,5-a]pyridin-2-yl)-6,7-dihydro-1H-imidazo[4,5-c]pyridin-5(4H)-yl)(5-(pyridin-2-yl)-1,3,4-oxadiazol-2-yl)methanone], above 5 µM; that for `O=C(c1ccnn1C1CC1)N1CCc2[nH]cnc2[C@H]1c1cc2ccccn2n1` [Example 2386, (S)-(1-cyclopropyl-1H-pyrazol-5-yl)(4-(pyrazolo[1,5-a]pyridin-2-yl)-6,7-dihydro-1H-imidazo[4,5-c]pyridin-5(4H)-yl)methanone], 1 to 5 µM. In the case of `O=C(c1ccnn1-c1ccccn1)N1CCc2[nH]cnc2[C@H]1c1cc2c(F)cccn2n1` [Example 2388, (S)-(4-(4-fluoropyrazolo[1,5-a]pyridin-2-yl)-6,7-dihydro-1H-imidazo[4,5-c]pyridin-5(4H)-yl)(1-(pyridin-2-yl)-1H-pyrazol-5-yl)methanone], the AC50 fell in the range of 1 to 5 µM. The result for `Cc1cc(C(=O)N2CCc3[nH]cnc3[C@H]2c2cc3c(F)cccn3n2)n(C)n1` [Example 2390, (S)-(1,3-dimethyl-1H-pyrazol-5-yl)(4-(4-fluoropyrazolo[1,5-a]pyridin-2-yl)-6,7-dihydro-1H-imidazo[4,5-c]pyridin-5(4H)-yl)methanone] reads 1 to 5 µM. Next, `COc1cccn2nc([C@@H]3c4nc[nH]c4CCN3C(=O)c3nc(C)nn3C)cc12` [Example 2393, (S)-(1,3-dimethyl-1H-1,2,4-triazol-5-yl)(4-(4-methoxypyrazolo[1,5-a]pyridin-2-yl)-6,7-dihydro-1H-imidazo[4,5-c]pyridin-5(4H)-yl)methanone]: 1 to 5 µM; `Cc1cccc2cc([C@H]3c4nc[nH]c4CCN3C(=O)c3nnc(-c4cn(C)cn4)o3)nn12` [Example 2394, (R)-(5-(1-methyl-1H-imidazol-4-yl)-1,3,4-oxadiazol-2-yl)(4-(7-methylpyrazolo[1,5-a]pyridin-2-yl)-6,7-dihydro-1H-imidazo[4,5-c]pyridin-5(4H)-yl)methanone]: above 5 µM; `Cc1cccc2cc([C@@H]3c4nc[nH]c4CCN3C(=O)c3nnc(-c4cn(C)cn4)o3)nn12` [Example 2395, (S)-(5-(1-methyl-1H-imidazol-4-yl)-1,3,4-oxadiazol-2-yl)(4-(7-methylpyrazolo[1,5-a]pyridin-2-yl)-6,7-dihydro-1H-imidazo[4,5-c]pyridin-5(4H)-yl)methanone]: 1 to 5 µM. Next, `Cn1nc(C(F)F)nc1C(=O)N1CCc2[nH]cnc2[C@H]1c1cc2cccc(Cl)n2n1` [Example 2396, (S)-(4-(7-chloropyrazolo[1,5-a]pyridin-2-yl)-6,7-dihydro-1H-imidazo[4,5-c]pyridin-5(4H)-yl)(3-(difluoromethyl)-1-methyl-1H-1,2,4-triazol-5-yl)methanone]: 1 to 5 µM; `Cn1nc(C(F)(F)F)nc1C(=O)N1CCc2[nH]cnc2[C@H]1c1cc2c(F)cccn2n1` [Example 2398, (S)-(4-(4-fluoropyrazolo[1,5-a]pyridin-2-yl)-6,7-dihydro-1H-imidazo[4,5-c]pyridin-5(4H)-yl)(1-methyl-3-(trifluoromethyl)-1H-1,2,4-triazol-5-yl)methanone]: 1 to 5 µM. `Cn1nc(C(F)(F)F)nc1C(=O)N1CCc2[nH]cnc2[C@@H]1c1cc2c(F)cccn2n1` [Example 2399, (R)-(4-(4-fluoropyrazolo[1,5-a]pyridin-2-yl)-6,7-dihydro-1H-imidazo[4,5-c]pyridin-5(4H)-yl)(1-methyl-3-(trifluoromethyl)-1H-1,2,4-triazol-5-yl)methanone]: the AC50 was 1 to 5 µM. `O=C(c1ocnc1C(F)F)N1CCc2[nH]cnc2[C@H]1c1cc2cc(F)ccn2n1` [Example 2400, (S)-(4-(difluoromethyl)oxazol-5-yl)(4-(5-fluoropyrazolo[1,5-a]pyridin-2-yl)-6,7-dihydro-1H-imidazo[4,5-c]pyridin-5(4H)-yl)methanone]: the AC50 is below 0.5 µM. Consider `O=C(c1ocnc1C(F)F)N1CCc2[nH]cnc2[C@@H]1c1cc2cc(F)ccn2n1` [Example 2401, (R)-(4-(difluoromethyl)oxazol-5-yl)(4-(5-fluoropyrazolo[1,5-a]pyridin-2-yl)-6,7-dihydro-1H-imidazo[4,5-c]pyridin-5(4H)-yl)methanone], for which the AC50 was in the range of 1 to 5 µM. The result for `Cc1ccc2cc([C@@H]3c4nc[nH]c4CCN3C(=O)c3nc(C(F)F)nn3C)nn2c1` [Example 2403, (S)-(3-(difluoromethyl)-1-methyl-1H-1,2,4-triazol-5-yl)(4-(6-methylpyrazolo[1,5-a]pyridin-2-yl)-6,7-dihydro-1H-imidazo[4,5-c]pyridin-5(4H)-yl)methanone] reads 1 to 5 µM. The result for `O=C(c1nnc(C2CC2)o1)N1CCc2[nH]cnc2[C@@H]1c1cc2ccc(F)cn2n1` [Example 2405, (R)-(5-cyclopropyl-1,3,4-oxadiazol-2-yl)(4-(6-fluoropyrazolo[1,5-a]pyridin-2-yl)-6,7-dihydro-1H-imidazo[4,5-c]pyridin-5(4H)-yl)methanone] reads above 5 µM.

As a reminder, the AC50 is the midpoint of the concentration-response curve, whichever way the signal moves.
